Measurements from PubChem BioAssay (NCI).
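Cultured in 96-well plates, cells were exposed to test compound for 48 hours across five concentrations. The concentration for 50% growth inhibition is given as GI50. TGI: concentration producing complete growth inhibition.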

Assays:
Assay in all cases: inhibition of tumour cell growth, NCI panel, 48 h
NCI-H226 lung = system: NCI-H226 lung
A549 NSCLC = system: A549 NSCLC
OVCAR-8 ovarian = system: OVCAR-8 ovarian
SF-268 CNS = system: SF-268 CNS
DU-145 prostate = system: DU-145 prostate
SNB-75 CNS = system: SNB-75 CNS
786-0 renal = system: 786-0 renal
CCRF-CEM leukemia = system: CCRF-CEM leukemia
OVCAR-3 ovarian = system: OVCAR-3 ovarian
PC-3 prostate = system: PC-3 prostate

| SMILES | GI50 (NCI-H226 lung) [µM] | TGI (NCI-H226 lung) [µM] | GI50 (A549 NSCLC) [µM] | TGI (A549 NSCLC) [µM] | GI50 (OVCAR-8 ovarian) [µM] | TGI (OVCAR-8 ovarian) [µM] | GI50 (SF-268 CNS) [µM] | TGI (SF-268 CNS) [µM] | GI50 (DU-145 prostate) [µM] | TGI (DU-145 prostate) [µM] | GI50 (SNB-75 CNS) [µM] | TGI (SNB-75 CNS) [µM] | GI50 (786-0 renal) [µM] | TGI (786-0 renal) [µM] | GI50 (CCRF-CEM leukemia) [nM] | TGI (CCRF-CEM leukemia) [µM] | GI50 (OVCAR-3 ovarian) [µM] | TGI (OVCAR-3 ovarian) [µM] | GI50 (PC-3 prostate) [µM] | TGI (PC-3 prostate) [µM] |
| --- | --- | --- | --- | --- | --- | --- | --- | --- | --- | --- | --- | --- | --- | --- | --- | --- | --- | --- | --- | --- |
| C[n+]1cc2c3c(ccc2c2ccc4cc5c(cc4c21)OCO5)OCO3 | 1.54 | 2.98 | 0.322 | 1.15 | 0.326 | 1.4 | 0.489 | 1.7 | 0.726 | 1.96 | 1.01 | 2.17 | 1.02 | 2.26 | 217 | 1.15 | 0.278 | 0.758 | 0.668 | 2.08 |
| CC1(C)O[C@H]2OC3CCC(=O)CC3(O)[C@H]2O1 (stereo not given in full) | – | > 100 | – | > 100 | – | > 100 | – | > 100 | – | > 100 | – | > 100 | – | > 100 | – | > 100 | – | > 100 | – | > 100 |
| CC(C)c1ccc2nc3ccc(C(=O)NCCN(C)C)cn3c(=O)c2c1 | – | 37.1 | – | 34.7 | – | 39.9 | – | 36.3 | – | > 100 | – | 22.5 | – | 27.8 | – | 32.1 | – | > 100 | – | 30.6 |
| COc1ccc(Cl)cc1Nc1nc(C(F)(F)F)ccc1C(=O)NN | 3.62 | > 100 | 18.4 | > 100 | 3.43 | > 100 | 1.38 | > 100 | 2.42 | > 20.2 | 16.6 | > 100 | 2.42 | > 25.8 | 319 | 2.86 | 0.615 | > 24.5 | 2.84 | > 100 |
| CSc1ccc(C2=Nn3c(nnc3-c3ccc(F)c(Cl)c3)SC2)cc1 | 18.4 | 75.7 | 12.5 | 29.7 | 22.2 | > 100 | 75.7 | > 100 | 34.2 | > 100 | 4.67 | 16 | 13.5 | 32 | 11100 | > 100 | 5.62 | 21 | 4.67 | > 100 |
| S=C(N/N=C/c1cc(Cl)cc(Cl)c1)NC12CC3CC(CC(C3)C1)C2 | > 29.9 | > 100 | 3.51 | > 100 | 4.87 | > 100 | 6.18 | > 100 | 12.8 | > 100 | 2 | 5.46 | 8.63 | > 100 | > 61100 | > 100 | 6.03 | > 100 | > 30.2 | > 100 |
| CON(C)C(=O)C(C)NC(=O)OCc1ccccc1 (stereo not given) | – | > 100 | – | > 100 | – | > 100 | – | > 100 | – | > 100 | – | > 100 | – | > 100 | – | > 100 | – | > 100 | – | > 100 |
| COc1ccc(C2SC(N)=Nc3c2c(C)nn3C(=O)c2ccc(Cl)cc2)cc1OC (stereo not given) | – | > 10 | – | > 10 | – | > 10 | – | > 10 | – | > 10 | – | > 10 | – | > 10 | – | > 10 | – | > 10 | – | > 10 |
| Cc1ccc(C(=O)Nc2ccc(CN3CCN(C)CC3)c(C(F)(F)F)c2)cc1C#Cc1cnc(N)c2ccc(F)cc12 | 0.737 | 3.66 | 0.27 | 0.712 | 0.297 | 2.37 | 0.259 | 1.88 | 0.139 | 0.554 | 0.256 | 0.863 | 0.305 | 0.731 | 398 | 1.82 | 0.359 | 1.06 | 0.508 | 1.66 |
| C/C(=N\O)c1ccc(Nc2cc(-n3nnc4ccccc43)nc3ccccc23)cc1 | 7.88 | 30.3 | 8.42 | > 41.3 | 5.65 | 18.3 | 9.97 | > 41.9 | 7.7 | 30 | 22.8 | 99.2 | 4.89 | 13.3 | 2750 | 30.3 | 16.3 | 43.1 | 4.5 | 20.5 |
| CS(=O)(=O)c1ccc(Cl)c([N+](=O)[O-])c1 | 15 | 30.3 | 19.3 | 41.1 | 17.7 | 36.8 | 18.5 | 36.3 | 13.3 | 26.4 | 15.3 | 29.5 | 19.9 | 36.8 | 19200 | 52.2 | 17.8 | 32.5 | 19.1 | 37.5 |
| Fc1cccc(COc2ccc(Nc3ncnc4sc(-c5ccco5)cc34)cc2Cl)c1 | > 25 | > 25 | > 25 | > 25 | > 25 | > 25 | > 25 | > 25 | > 25 | > 25 | > 25 | > 25 | > 25 | > 25 | > 25000 | > 25 | > 25 | > 25 | > 25 | > 25 |
